From PubChem BioAssay (NCI)
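In this assay, cells in 96-well plates receive the compound at five concentrations for 48 hours. Endpoints are linearly interpolated between the surrounding concentrations. TGI is the concentration that stops growth completely.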

Experiments:
Experiment in all cases: growth of human tumour cells (NCI), 48 h
SF-268 CNS = tested on: SF-268 CNS
NCI-H522 lung = tested on: NCI-H522 lung
BT-549 breast = tested on: BT-549 breast
PC-3 prostate = tested on: PC-3 prostate
HOP-62 NSCLC = tested on: HOP-62 NSCLC
EKVX NSCLC = tested on: EKVX NSCLC
OVCAR-5 ovarian = tested on: OVCAR-5 ovarian
UO-31 renal = tested on: UO-31 renal
A549 NSCLC = tested on: A549 NSCLC
OVCAR-4 ovarian = tested on: OVCAR-4 ovarian
786-0 renal = tested on: 786-0 renal
SN12C renal = tested on: SN12C renal
NCI-H23 lung = tested on: NCI-H23 lung
M14 melanoma = tested on: M14 melanoma
MCF7 breast = tested on: MCF7 breast
HCT-15 colon = tested on: HCT-15 colon
A498 renal = tested on: A498 renal
MDA-MB-231 breast = tested on: MDA-MB-231 breast
SNB-19 CNS = tested on: SNB-19 CNS
NCI/ADR-RES ovarian = tested on: NCI/ADR-RES ovarian
DU-145 prostate = tested on: DU-145 prostate
KM12 colon = tested on: KM12 colon
OVCAR-8 ovarian = tested on: OVCAR-8 ovarian
NCI-H226 lung = tested on: NCI-H226 lung
HCT-116 colon = tested on: HCT-116 colon
MOLT-4 leukemia = tested on: MOLT-4 leukemia
SK-MEL-28 melanoma = tested on: SK-MEL-28 melanoma
LOX IMVI melanoma = tested on: LOX IMVI melanoma
SK-OV-3 ovarian = tested on: SK-OV-3 ovarian
TK-10 renal = tested on: TK-10 renal
COLO 205 colon = tested on: COLO 205 colon
SF-295 CNS = tested on: SF-295 CNS
SK-MEL-2 melanoma = tested on: SK-MEL-2 melanoma
OVCAR-3 ovarian = tested on: OVCAR-3 ovarian
UACC-62 melanoma = tested on: UACC-62 melanoma
SF-539 CNS = tested on: SF-539 CNS
MDA-MB-435 = tested on: MDA-MB-435
HS 578T breast = tested on: HS 578T breast
CAKI-1 renal = tested on: CAKI-1 renal
RPMI-8226 leukemia = tested on: RPMI-8226 leukemia
HT29 colon = tested on: HT29 colon
SR leukemia = tested on: SR leukemia
IGROV1 ovarian = tested on: IGROV1 ovarian
MALME-3M melanoma = tested on: MALME-3M melanoma
SK-MEL-5 melanoma = tested on: SK-MEL-5 melanoma
T-47D breast = tested on: T-47D breast
ACHN renal = tested on: ACHN renal
SW-620 colon = tested on: SW-620 colon
UACC-257 melanoma = tested on: UACC-257 melanoma
MDA-N = tested on: MDA-N
K-562 leukemia = tested on: K-562 leukemia
U251 CNS = tested on: U251 CNS
CCRF-CEM leukemia = tested on: CCRF-CEM leukemia
HCC-2998 colon = tested on: HCC-2998 colon
NCI-H460 lung = tested on: NCI-H460 lung
HL-60(TB) leukemia = tested on: HL-60(TB) leukemia
RXF 393 renal = tested on: RXF 393 renal
SNB-75 CNS = tested on: SNB-75 CNS
HOP-92 NSCLC = tested on: HOP-92 NSCLC

## CN(C(=O)Cc1ccc(Cl)c(Cl)c1)[C@H]1CCCC[C@@H]1[N+]1(C)CCCC1
SF-268 CNS
  TGI: > 100 µM
NCI-H522 lung
  TGI: > 100 µM
BT-549 breast
  TGI: > 100 µM
PC-3 prostate
  TGI: > 100 µM
HOP-62 NSCLC
  TGI: > 100 µM
EKVX NSCLC
  TGI: > 100 µM
OVCAR-5 ovarian
  TGI: > 100 µM
UO-31 renal
  TGI: > 100 µM
A549 NSCLC
  TGI: > 100 µM
OVCAR-4 ovarian
  TGI: > 100 µM
786-0 renal
  TGI: > 100 µM
SN12C renal
  TGI: > 100 µM
NCI-H23 lung
  TGI: > 100 µM
M14 melanoma
  TGI: > 100 µM
MCF7 breast
  TGI: > 100 µM
HCT-15 colon
  TGI: > 100 µM
A498 renal
  TGI: > 100 µM
MDA-MB-231 breast
  TGI: > 100 µM
SNB-19 CNS
  TGI: > 100 µM
NCI/ADR-RES ovarian
  TGI: > 100 µM
DU-145 prostate
  TGI: > 100 µM
KM12 colon
  TGI: > 100 µM
OVCAR-8 ovarian
  TGI: > 100 µM
NCI-H226 lung
  TGI: > 100 µM
HCT-116 colon
  TGI: > 100 µM
MOLT-4 leukemia
  TGI: > 100 µM
SK-MEL-28 melanoma
  TGI: > 100 µM
LOX IMVI melanoma
  TGI: > 100 µM
SK-OV-3 ovarian
  TGI: > 100 µM
TK-10 renal
  TGI: > 100 µM
COLO 205 colon
  TGI: > 100 µM
SF-295 CNS
  TGI: > 100 µM
SK-MEL-2 melanoma
  TGI: > 100 µM
OVCAR-3 ovarian
  TGI: > 100 µM
UACC-62 melanoma
  TGI: > 100 µM
SF-539 CNS
  TGI: > 100 µM
MDA-MB-435
  TGI: > 100 µM
HS 578T breast
  TGI: > 100 µM
CAKI-1 renal
  TGI: > 100 µM
RPMI-8226 leukemia
  TGI: > 100 µM
HT29 colon
  TGI: > 100 µM
SR leukemia
  TGI: > 100 µM
IGROV1 ovarian
  TGI: > 100 µM
MALME-3M melanoma
  TGI: > 100 µM
SK-MEL-5 melanoma
  TGI: > 100 µM
T-47D breast
  TGI: > 100 µM
ACHN renal
  TGI: > 100 µM
SW-620 colon
  TGI: > 100 µM
UACC-257 melanoma
  TGI: > 100 µM
MDA-N
  TGI: > 100 µM
K-562 leukemia
  TGI: > 100 µM
U251 CNS
  TGI: > 100 µM

## O=C1CC(=O)c2c(O)cc(O)c(c2O)-c2c(ccc(O)c2O)C2=CC(=O)c3c(O)cc(O)c(c3O2)-c2c1ccc(O)c2O (tested in a mixture with another compound)
SF-268 CNS
  TGI: > 50 µM
BT-549 breast
  TGI: > 50 µM
CCRF-CEM leukemia
  TGI: > 50 µM
PC-3 prostate
  TGI: > 50 µM
HCC-2998 colon
  TGI: > 50 µM
NCI-H460 lung
  TGI: > 50 µM
HOP-62 NSCLC
  TGI: > 50 µM
EKVX NSCLC
  TGI: > 50 µM
OVCAR-5 ovarian
  TGI: > 50 µM
HL-60(TB) leukemia
  TGI: > 50 µM
UO-31 renal
  TGI: > 50 µM
A549 NSCLC
  TGI: > 50 µM
OVCAR-4 ovarian
  TGI: > 50 µM
SN12C renal
  TGI: > 50 µM
NCI-H23 lung
  TGI: > 50 µM
M14 melanoma
  TGI: > 50 µM
MCF7 breast
  TGI: > 50 µM
HCT-15 colon
  TGI: > 50 µM
A498 renal
  TGI: > 50 µM
MDA-MB-231 breast
  TGI: > 50 µM
SNB-19 CNS
  TGI: > 50 µM
NCI/ADR-RES ovarian
  TGI: > 50 µM
DU-145 prostate
  TGI: > 50 µM
RXF 393 renal
  TGI: > 50 µM
OVCAR-8 ovarian
  TGI: > 50 µM
SNB-75 CNS
  TGI: > 50 µM
NCI-H226 lung
  TGI: > 50 µM
HCT-116 colon
  TGI: > 50 µM
MOLT-4 leukemia
  TGI: > 50 µM
SK-MEL-28 melanoma
  TGI: > 50 µM
LOX IMVI melanoma
  TGI: > 50 µM
SK-OV-3 ovarian
  TGI: > 50 µM
TK-10 renal
  TGI: > 50 µM
COLO 205 colon
  TGI: > 50 µM
SF-295 CNS
  TGI: > 50 µM
SK-MEL-2 melanoma
  TGI: > 50 µM
OVCAR-3 ovarian
  TGI: > 50 µM
UACC-62 melanoma
  TGI: > 50 µM
SF-539 CNS
  TGI: > 50 µM
MDA-MB-435
  TGI: > 50 µM
HOP-92 NSCLC
  TGI: > 50 µM
HS 578T breast
  TGI: > 50 µM
CAKI-1 renal
  TGI: > 50 µM
HT29 colon
  TGI: > 50 µM
SR leukemia
  TGI: > 50 µM
IGROV1 ovarian
  TGI: > 50 µM
MALME-3M melanoma
  TGI: > 50 µM
SK-MEL-5 melanoma
  TGI: > 50 µM
T-47D breast
  TGI: > 50 µM
SW-620 colon
  TGI: > 50 µM
UACC-257 melanoma
  TGI: > 50 µM
MDA-N
  TGI: > 50 µM
K-562 leukemia
  TGI: > 50 µM
U251 CNS
  TGI: > 50 µM
